pEC50: −log10 of the molar value.
Legend:
Assay type in all cases: cell-based
[1] = target: T1, WEE1 (Homo sapiens, UniProt P30291+Q96SW2); assay: WEE1-ePL degradation assay (293T-LentiX, InCELL Hunter luminescence, 4 hr); details: for DC50: LentiX-HEK293T cells expressing WEE1-ePL, 4 hr incubation, read-out: 293T-LentiX WEE1-ePL Degradation 4 hr EC50; for 293T-LentiX WEE1-ePL Degradation 4 hr YMin (%): lower limit of fit, % of DMSO control signal remaining
T1 construct: C-terminal ePL-tagged (DiscoverX, Fremont, CA) full-length WEE1 expression construct; expressed in transfected cells; host or cells: LentiX-HEK293T (Invitrogen), lentivirally transduced; the cells also over-express GSPT1-GN
Procedure, shortened: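 LentiX-HEK293T cells expressing C-terminally ePL-tagged full-length WEE1 plus non-degradable GSPT1-GN (G575N, N-terminal 158 aa truncated). Treated 4 h at 37 °C with a 10-point, 3-fold series from 1 or 10 µM, then read by InCELL Hunter luminescence. EC50 from four-parameter logistic fit, Ymax set by DMSO control.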

[2] = tested on: MDA-MB-231 cells; assay: MDA-MB-231 cell proliferation assay (Cell-Titer-Glo, 120 hr); details: for pEC50: Homo sapiens, MDA-MB-231, 120 h, read-out: MDA-MB 231 Cell Prolif. 120 hr EC50; for MDA-MB 231 Cell Prolif. 120 hr YMin (%): minimal percent of DMSO control observed
From the text: (§1) MKN45 cells were obtained from Celgene internal cell banks and cultured in RPMI complete media (RPMI-1640, 1× Penicillin/Streptomycin, 1× glutamine, 1× Sodium Pyruvate, Non-essential Amino Acids, 10% Fetal Bovine serum, all component from Thermo-Fisher). MDA-MB-231 cells were obtained from the ATCC (HTB-26) and cultured in RPMI-1640 and 10% Fetal Bovine serum; MDA-MB-231 cells were expanded and stored as aliquots in liquid nitrogen in Celgene internal cell banks. Compounds were dispensed into 384-well plates using an HP DE300 compound printer in triplicate with 8 compounds on each plate. Compounds were dispensed into 384-well black clear bottom plates (Corning #3764BC) using an EDC acoustic dispenser at BMS. For each compound, a 10-point dose response was printed at half-log dilutions starting at either 1 uM or 10 uM in triplicate for MKN45 cells and in duplicate for MDA-MB-231 cells. The DMSO concentration was kept constant for a final assay concentration of 0.1% per well assuming 50 ul final media volume. Compound plates were sealed and frozen at −20 C until use.
(§2) For each assay batch, compound plates were thawed and allowed to reach room temperature, and cells were seeded at 400 MKN45 cells per well, or 800 MDA-MB-231 cells per well, in 50 ul media listed above for each cell line. After 120 hours of incubation at 37 C and 5% CO2, cells were lysed by addition of 25 μL of Cell-Titer-Glo Reagent (Promega Corporation, Madison, WI), as per manufacturer's instructions, protected from light, shaken for 45 minutes, and total luminescence read by a Perkin Elmer Envision plate reader. Total luminescence signal is linearly correlated with cell number remaining in the well.
(§3) Luminescence data was processed per plate by subtracting reagent-only “blank” well luminescence from all measured values and calculating a percent of DMSO control value for each treatment well. Then, to determine the half-maximal effective concentration (EC50) values for cell growth inhibition, a four parameter logistic model was fit to the data for each DMSO-normalized compound: Sigmoidal Dose-Response Model: (FIT=(A+((B−A)/1+((C/x)^D)))) where C is the inflection point ([…]), D is the Hill slope, and A and B are the low and high limits of the fit respectively. The lower limit of the fit (value A) is referred to as Ymin-calculated. The minimal percent of DMSO control that is observed in the concentrations tested for each compound is labeled as “Ymin-obs”, and was recorded and reported in the tables. Sigmoidal fit curves were processed and evaluated using Activity Base (IDBS, Alameda, CA) or using Dotmatics (Boston, MA). N/A=not available at the present time.

[3] = tested on: MKN45 cells; assay: MKN45 cell proliferation assay (Cell-Titer-Glo, 120 hr); details: for pEC50: Homo sapiens, MKN-45, 120 h, read-out: MKN45 Cell Prolif. 120 hr EC50; for MKN45 Cell Prolif. 120 hr YMin (%): minimal percent of DMSO control observed
From the text: as §1, §2, §3

T1 sequence (P30291 whole entry): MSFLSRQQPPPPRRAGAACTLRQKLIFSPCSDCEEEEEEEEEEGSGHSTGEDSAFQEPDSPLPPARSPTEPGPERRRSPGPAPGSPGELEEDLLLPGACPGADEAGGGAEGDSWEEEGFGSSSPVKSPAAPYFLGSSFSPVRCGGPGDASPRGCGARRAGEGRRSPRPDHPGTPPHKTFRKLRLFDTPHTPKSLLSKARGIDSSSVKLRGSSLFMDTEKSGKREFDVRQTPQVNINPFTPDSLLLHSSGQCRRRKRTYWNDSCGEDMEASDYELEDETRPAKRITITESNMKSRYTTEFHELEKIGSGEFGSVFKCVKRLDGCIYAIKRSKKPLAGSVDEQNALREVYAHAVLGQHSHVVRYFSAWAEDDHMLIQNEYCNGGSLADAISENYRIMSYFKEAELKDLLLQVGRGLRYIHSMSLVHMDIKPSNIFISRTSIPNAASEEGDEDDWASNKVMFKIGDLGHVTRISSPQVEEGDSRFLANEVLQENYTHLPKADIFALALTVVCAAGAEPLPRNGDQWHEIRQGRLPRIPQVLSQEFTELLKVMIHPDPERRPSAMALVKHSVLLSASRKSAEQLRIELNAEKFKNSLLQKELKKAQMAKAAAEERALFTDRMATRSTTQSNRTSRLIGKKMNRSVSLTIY
T1 sequence (Q96SW2 whole entry): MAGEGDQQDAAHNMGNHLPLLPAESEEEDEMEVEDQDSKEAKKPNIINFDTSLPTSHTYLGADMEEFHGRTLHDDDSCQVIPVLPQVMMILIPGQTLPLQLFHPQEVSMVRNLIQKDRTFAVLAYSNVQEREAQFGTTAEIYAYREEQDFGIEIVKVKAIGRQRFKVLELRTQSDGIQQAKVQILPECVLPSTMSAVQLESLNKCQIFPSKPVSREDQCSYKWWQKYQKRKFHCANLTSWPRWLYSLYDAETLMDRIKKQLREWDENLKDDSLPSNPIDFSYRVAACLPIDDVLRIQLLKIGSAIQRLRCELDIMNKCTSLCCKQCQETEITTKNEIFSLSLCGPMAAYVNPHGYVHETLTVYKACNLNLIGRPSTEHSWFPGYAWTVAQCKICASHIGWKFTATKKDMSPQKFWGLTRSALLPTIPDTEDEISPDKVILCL
T1 sequence (Q16531 whole entry partner): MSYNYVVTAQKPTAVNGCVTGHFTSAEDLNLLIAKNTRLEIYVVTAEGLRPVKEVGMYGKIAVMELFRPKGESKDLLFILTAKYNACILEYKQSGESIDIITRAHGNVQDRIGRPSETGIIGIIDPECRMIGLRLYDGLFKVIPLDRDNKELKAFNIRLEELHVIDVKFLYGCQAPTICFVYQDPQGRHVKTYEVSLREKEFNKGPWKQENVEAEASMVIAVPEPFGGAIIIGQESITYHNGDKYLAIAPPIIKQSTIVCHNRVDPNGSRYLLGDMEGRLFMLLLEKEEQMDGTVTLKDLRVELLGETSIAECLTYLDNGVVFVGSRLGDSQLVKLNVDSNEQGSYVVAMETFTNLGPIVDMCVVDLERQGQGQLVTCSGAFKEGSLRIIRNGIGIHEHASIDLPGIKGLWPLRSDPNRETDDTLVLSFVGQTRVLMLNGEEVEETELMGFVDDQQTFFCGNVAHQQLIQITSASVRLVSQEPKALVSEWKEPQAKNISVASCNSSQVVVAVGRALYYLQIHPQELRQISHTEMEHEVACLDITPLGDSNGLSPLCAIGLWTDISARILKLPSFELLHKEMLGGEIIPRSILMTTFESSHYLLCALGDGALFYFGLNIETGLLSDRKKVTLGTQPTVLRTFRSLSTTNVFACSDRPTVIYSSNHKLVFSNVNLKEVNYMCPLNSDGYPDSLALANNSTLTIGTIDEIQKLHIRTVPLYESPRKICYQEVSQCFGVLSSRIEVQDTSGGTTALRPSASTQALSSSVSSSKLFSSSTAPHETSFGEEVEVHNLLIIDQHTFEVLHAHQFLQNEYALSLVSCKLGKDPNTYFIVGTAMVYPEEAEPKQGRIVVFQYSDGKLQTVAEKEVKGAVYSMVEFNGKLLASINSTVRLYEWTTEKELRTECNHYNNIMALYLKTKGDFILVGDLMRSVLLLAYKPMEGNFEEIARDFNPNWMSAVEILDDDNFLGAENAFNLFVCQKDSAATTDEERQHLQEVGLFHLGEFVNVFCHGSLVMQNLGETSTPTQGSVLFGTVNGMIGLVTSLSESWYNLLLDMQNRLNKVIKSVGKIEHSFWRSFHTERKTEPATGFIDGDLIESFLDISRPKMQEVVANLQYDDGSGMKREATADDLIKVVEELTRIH

Row | DC50 [1] | 293T-LentiX WEE1-ePL Degradation 4 hr YMin (%) [1] | pEC50 [2] | pEC50 [3] | Structure (SMILES) | MDA-MB 231 Cell Prolif. 120 hr YMin (%) [2] | MKN45 Cell Prolif. 120 hr YMin (%) [3]
1 | 1 nM | 29.6% | 7.55 | 9.00 | COC[C@@H]1CN(Cc2cc(F)c3nc(C4CCN(C(C)=O)C4)ccc3c2)C[C@H]1Oc1ccc2c(c1)CN([C@H]1CCC(=O)NC1=O)C2=O (relative stereo) [Example 67, rel-(3S)-3-(5-(((3S,4S)-1-((2-(1-acetylpyrrolidin-3-yl)-8-fluoroquinolin-6-yl)methyl)-4-(methoxymethyl)pyrrolidin-3-yl)oxy)-1-oxoisoindolin-2-yl)piperidine-2,6-dione] | 37.7% | 12.3%
2 |  | 27.7% | 8.05 | 9.00 | COC[C@@H]1CN(Cc2cc(F)c3nc(C4CCCCO4)ccc3c2)C[C@H]1Oc1ccc2c(c1)CN([C@H]1CCC(=O)NC1=O)C2=O (relative stereo) [Example 69, rel-(3S)-3-(5-{[(3S,4S)-1-{[8-fluoro-2-(oxan-2-yl)quinolin-6-yl]methyl}-4-(methoxymethyl)pyrrolidin-3-yl]oxy}-1-oxo-2,3-dihydro-1H-isoindol-2-yl)piperidine-2,6-dione] | 20.5% | 8.6%
3 | 1 nM | 28.9% | 7.74 | 9.00 | COC[C@@H]1CN(Cc2cc(F)c3nc(C4CCCOC4)ccc3c2)C[C@H]1Oc1ccc2c(c1)CN([C@H]1CCC(=O)NC1=O)C2=O (relative stereo) [Example 70, rel-(3S)-3-(5-{[(3S,4S)-1-{[8-fluoro-2-(oxan-3-yl)quinolin-6-yl]methyl}-4-(methoxymethyl)pyrrolidin-3-yl]oxy}-1-oxo-2,3-dihydro-1H-isoindol-2-yl)piperidine-2,6-dione] | 26.1% | 11.9%
4 | 3 nM | 27.1% | 7.57 | 8.40 | COC[C@@H]1CN(Cc2cc(F)c3nc(C4CCCOC4)ncc3c2)C[C@H]1Oc1ccc2c(c1)CN([C@H]1CCC(=O)NC1=O)C2=O (relative stereo) [Example 78, rel-(3S)-3-(5-{[(3S,4S)-1-{[8-fluoro-2-(oxan-3-yl)quinazolin-6-yl]methyl}-4-(methoxymethyl)pyrrolidin-3-yl]oxy}-1-oxo-2,3-dihydro-1H-isoindol-2-yl)piperidine-2,6-dione] | 22.5% | 7.7%
5 |  | 85.0% | 5.59 | 9.00 | O=C1CC[C@H](N2Cc3cc(O[C@@H]4CN(Cc5cc(F)c6nc(C7CCOCC7)ccc6c5)C[C@H]4c4ccccc4)ccc3C2=O)C(=O)N1 (relative stereo) [Example 116, (S)-3-(5-(((3S*,4R*)-1-((8-fluoro-2-(tetrahydro-2H-pyran-4-yl)quinolin-6-yl)methyl)-4-phenylpyrrolidin-3-yl)oxy)-1-oxoisoindolin-2-yl)piperidine-2,6-dione] | 89.1% | 83.5%
6 |  | 92.4% | 6.54 |  | O=C1CC[C@H](N2Cc3cc(O[C@@H]4CN(Cc5cc(F)c6nc(C7CCOCC7)ccc6c5)C[C@H]4c4ccncc4)ccc3C2=O)C(=O)N1 (relative stereo) [Example 118, (S)-3-(5-(((3S*,4R*)-1-((8-fluoro-2-(tetrahydro-2H-pyran-4-yl)quinolin-6-yl)methyl)-4-(pyridin-4-yl)pyrrolidin-3-yl)oxy)-1-oxoisoindolin-2-yl)piperidine-2,6-dione] | 70.2% | 65.0%

The remaining lines, values behind:

Row | Structure (SMILES) | DC50 [1] | 293T-LentiX WEE1-ePL Degradation 4 hr YMin (%) [1] | pEC50 [2] | pEC50 [3] | MDA-MB 231 Cell Prolif. 120 hr YMin (%) [2] | MKN45 Cell Prolif. 120 hr YMin (%) [3]
7 | COC[C@@H]1CN(Cc2cc(F)c3nc(C4CCN(CC(F)(F)F)C4)ccc3c2)C[C@H]1Oc1ccc2c(c1)CN([C@H]1CCC(=O)NC1=O)C2=O (relative stereo) [Example 68, rel-(3S)-3-(5-(((3S,4S)-1-((8-fluoro-2-(1-(2,2,2-trifluoroethyl)pyrrolidin-3-yl)quinolin-6-yl)methyl)-4-(methoxymethyl)pyrrolidin-3-yl)oxy)-1-oxoisoindolin-2-yl)piperidine-2,6-dione] | 2 nM | 26.4% | 7.85 | 9.00 | 17.4% | 8.9%
8 | COC[C@@H]1CN(Cc2cc(F)c3nc(C4CCCN4C)ncc3c2)C[C@H]1Oc1ccc2c(c1)CN([C@H]1CCC(=O)NC1=O)C2=O (relative stereo) [Example 77, rel-(3S)-3-(5-{[(3S,4S)-1-{[8-fluoro-2-(1-methylpyrrolidin-2-yl)quinazolin-6-yl]methyl}-4-(methoxymethyl)pyrrolidin-3-yl]oxy}-1-oxo-2,3-dihydro-1H-isoindol-2-yl)piperidine-2,6-dione] | 23 nM | 25.5% | 6.48 | 7.37 | 80.1% | 13.1%
9 | COC[C@@H]1CN(Cc2cc(F)c3nc(C4CCCCO4)ncc3c2)C[C@H]1Oc1ccc2c(c1)CN([C@H]1CCC(=O)NC1=O)C2=O (relative stereo) [Example 96, rel-(3S)-3-(5-{[(3S,4S)-1-{[8-fluoro-2-(oxan-2-yl)quinazolin-6-yl]methyl}-4-(methoxymethyl)pyrrolidin-3-yl]oxy}-1-oxo-2,3-dihydro-1H-isoindol-2-yl)piperidine-2,6-dione] | 7 nM | 29.4% | 6.91 | 8.05 | 28.4% | 11.4%
10 | O=C(O)CC(CCO)c1ccc2cc(CN3CC[C@H](Oc4ccc5c(c4)CN([C@H]4CCC(=O)NC4=O)C5=O)C3)cc(F)c2n1 (relative stereo) [Example 99, rel-3-(6-{[(3S)-3-({2-[(3S)-2,6-dioxopiperidin-3-yl]-1-oxo-2,3-dihydro-1H-isoindol-5-yl}oxy)pyrrolidin-1-yl]methyl}-8-fluoroquinolin-2-yl)-5-hydroxypentanoic acid] | 75 nM | 39.0% | 7.14 | 6.55 | 78.7% | 82.9%
11 | COC[C@@H]1CN(Cc2cc(F)c3nc(C4CCC(C(C)(C)O)CC4)ncc3c2)C[C@H]1Oc1ccc2c(c1)CN([C@H]1CCC(=O)NC1=O)C2=O (relative stereo) [Example 111, rel-(S)-3-(5-(((3S,4S)-1-((8-fluoro-2-(4-(2-hydroxypropan-2-yl)cyclohexyl)quinazolin-6-yl)methyl)-4-(methoxymethyl)pyrrolidin-3-yl)oxy)-1-oxoisoindolin-2-yl)piperidine-2,6-dione] | 1 nM | 27.1% | 7.59 | 9.00 | 16.4% | 7.8%
12 | COC[C@@H]1CN(Cc2cc3ccc(C4CCC(C(C)(C)O)CC4)cc3cn2)C[C@H]1Oc1ccc2c(c1)CN([C@H]1CCC(=O)NC1=O)C2=O (relative stereo) [Example 112, rel-(S)-3-(5-(((3S,4S)-1-((7-(4-(2-hydroxypropan-2-yl)cyclohexyl)isoquinolin-3-yl)methyl)-4-(methoxymethyl)pyrrolidin-3-yl)oxy)-1-oxoisoindolin-2-yl)piperidine-2,6-dione] | 1 nM | 28.0% | 7.92 |  | 25.2% | 8.7%

Source: US20250197374A1, “WEE1 DEGRADING COMPOUNDS AND USES THEREOF” (BRISTOL-MYERS SQUIBB COMPANY, priority 2023, published 2025)
